Source: patent US6444617B1, “Fused-heterocycle dicarboxylic acid diamide derivatives or salts thereof, herbicide and usage thereof” (Nihon Nohyaku Co., Ltd., priority 1998, dated 2002)

Legend:
Assay type in all cases: in vivo
[1] = test system: barnyard grass (Echinochloa crus-galli Beauv.); assay: Test Example 2: herbicidal effect on paddy field weeds after emergence; conditions: Dosage 5 kg/ha; one-leaved stage; 21 days after treatment
Method: (§1) Test for Herbicidal Effect on Paddy Field Weeds After Emergence. Soil was filled into 1/10000 are pots and brought into a state of paddy field, in which seeds of barnyard grass (Echinochloa crus-galli Beauv.), bulrush (Scirpus juncoides Roxb.) and monochoria (Monochoria vaginalis Presl) were made to reach one-leaved stage. The soil in the pots were treated with a solution containing a predetermined dosage of a chemical agent comprising a compound of the present invention listed in Tables 1 to 14. Twenty one days after the treatment, the herbicidal effect was investigated and the result was compared with that in untreated plot to calculate the weed-controlling rate, and the herbicidal effect was judged according to the same criterion as in Test Example 1.

[2] = test system: monochoria (Monochoria vaginalis Presl); assay: as above; conditions: Dosage 5 kg/ha; one-leaved stage; 21 days after treatment
Method: as §1

[3] = test system: bulrush (Scirpus juncoides Roxb.); assay: as above; conditions: Dosage 5 kg/ha; one-leaved stage; 21 days after treatment
Method: as §1

[4] = test system: soybean plant (So); assay: Test Example 3: phytotoxicity to upland crop plants, treatment before emergence; conditions: dosage 5 kg/ha
Method: (§2) Herbicidal Effect on Upland Weeds Before Emergence […] Then, a liquid preparation of an agent comprising a prescribed concentration of a compound of the present invention (the compounds listed in Tables 1-14) as active ingredient was sprayed. Fourteen days after the treatment, the herbicidal effect was investigated, from which weed-killing rate was calculated in the same manner as in Test Example 1, and the herbicidal effect was judged. At the same time, phytotoxicity to soybean plant and wheat was investigated and judged according to the criterion mentioned below.

[5] = test system: wheat (Wh); assay: as above; conditions: dosage 5 kg/ha
Method: as §2

[6] = test system: cleavers (Galium aparine L.), Ga; assay: Test Example 4: herbicidal effect on upland weeds after emergence; conditions: dosage 5 kg/ha; sprayed after emergence; judged 14 days after treatment
Description: (§3) Herbicidal Effect on Upland Weeds After Emergence Polyethylene-made vats having a size of 10 cm (length)×20 cm (width)×5 cm (height) were filled with soil, sown with seeds of the following noxious upland weeds and with seeds of soybean plant and wheat as upland crop plants, and then covered with soil. The plants were made to grow up until they reached the leaf-stages mentioned below, after which an agent comprising a prescribed concentration of a compound of the present invention (listed in Tables 1 to 14) as active ingredient was sprayed. Fourteen days after the treatment, the herbicidal effect was investigated, from which weed-killing rate was calculated in the same manner as in Test Example 1 and the results were judged. […] Sample weeds, their leaf stages, and leaf stages of soybean plant and wheat were as follows: [table]

[7] = test system: velvetleaf (Abutilon theophtasti L.), At; assay: as above; conditions: dosage 5 kg/ha; sprayed after emergence; judged 14 days after treatment
Description: as §3

[8] = test system: cocklebur (Xanthium strumarium L.), Xs; assay: as above; conditions: dosage 5 kg/ha; sprayed after emergence; judged 14 days after treatment
Description: as §3

[9] = test system: forxtail grass (Alopecurus aequalis var. amurensis Ohwi), Am; assay: as above; conditions: dosage 5 kg/ha; sprayed after emergence; judged 14 days after treatment
Description: as §3

[10] = test system: bird's eye speedwell (Veronica persica Poir.), Vp; assay: as above; conditions: dosage 5 kg/ha; sprayed after emergence; judged 14 days after treatment
Description: as §3

[11] = test system: barnyard grass (Echinochloa crus-galli Beauv.), Ec; assay: as above; conditions: dosage 5 kg/ha; sprayed after emergence; judged 14 days after treatment
Description: as §3

[12] = test system: cleavers (Galium aparine L.), Ga; assay: Test Example 3: herbicidal effect on upland weeds before emergence; conditions: dosage 5 kg/ha
Method: as §2, with “judged.” for “judged. At the same time, phytotoxicity to soybean plant and wheat was investigated and judged according to the criterion mentioned below.”

[13] = test system: velvetleaf (Abutilon theophtasti L.), At; assay: as above; conditions: dosage 5 kg/ha
Method: as §2, with “judged.” for “judged. At the same time, phytotoxicity to soybean plant and wheat was investigated and judged according to the criterion mentioned below.”

[14] = test system: cocklebur (Xanthium strumarium L.), Xs; assay: as above; conditions: dosage 5 kg/ha
Method: as §2, with “judged.” for “judged. At the same time, phytotoxicity to soybean plant and wheat was investigated and judged according to the criterion mentioned below.”

[15] = test system: forxtail grass (Alopecurus aequalis var. amurensis Ohwi), Am; assay: as above; conditions: foxtail grass, dosage 5 kg/ha
Method: as §2, with “judged.” for “judged. At the same time, phytotoxicity to soybean plant and wheat was investigated and judged according to the criterion mentioned below.”

[16] = test system: bird's eye speedwell (Veronica persica Poir.), Vp; assay: as above; conditions: dosage 5 kg/ha
Method: as §2, with “judged.” for “judged. At the same time, phytotoxicity to soybean plant and wheat was investigated and judged according to the criterion mentioned below.”

[17] = test system: barnyard grass (Echinochloa crus-galli Beauv.), Ec; assay: as above; conditions: dosage 5 kg/ha
Method: as §2, with “judged.” for “judged. At the same time, phytotoxicity to soybean plant and wheat was investigated and judged according to the criterion mentioned below.”

[18] = test system: barnyard grass (Echinochloa crus-galli Beauv.); assay: Test Example 1: herbicidal effect on paddy field weeds before emergence; conditions: Dosage 5 kg/ha
Method: as §1, with “Before Emergence” for “After Emergence.”, “Beauv.) and” for “Beauv.),”, “Roxb.)” for “Roxb.) and monochoria (Monochoria vaginalis Presl)”, “be before germination.” for “reach one-leaved stage.”, “investigated,” for “investigated and”, “following criterion: […]” for “same criterion as in Test Example 1.”

[19] = test system: bulrush (Scirpus juncoides Roxb.); assay: as above; conditions: Dosage 5 kg/ha
Method: as §1, with “Before Emergence” for “After Emergence.”, “Beauv.) and” for “Beauv.),”, “Roxb.)” for “Roxb.) and monochoria (Monochoria vaginalis Presl)”, “be before germination.” for “reach one-leaved stage.”, “investigated,” for “investigated and”, “following criterion: […]” for “same criterion as in Test Example 1.”

[20] = test system: wheat; assay: Test Example 4: phytotoxicity to upland crop plants, treatment after emergence; conditions: dosage 5 kg/ha, sprayed after emergence, judged 14 days after treatment
Description: as §3

[21] = test system: soybean plant; assay: as above; conditions: dosage 5 kg/ha, sprayed after emergence, judged 14 days after treatment
Description: as §3

Structure (SMILES)	Post-emergence treatment Barnyard grass (herbicidal effect) [1]	Post-emergence treatment Monochoria (herbicidal effect) [2]	Post-emergence treatment Bulrush (herbicidal effect) [3]	Phytotoxicity So [4]	Phytotoxicity Wh [5]	Herbicidal effect Ga [6]	Herbicidal effect At [7]	Herbicidal effect Xs [8]	Herbicidal effect Am [9]	Herbicidal effect Vp [10]	Herbicidal effect Ec [11]	Herbicidal effect Ga [12]	Herbicidal effect At [13]	Herbicidal effect Xs [14]	Herbicidal effect Am [15]	Herbicidal effect Vp [16]	Herbicidal effect Ec [17]	Pre-emergence treatment Barnyard grass (herbicidal effect) [18]	Pre-emergence treatment Bulrush (herbicidal effect) [19]	Phytotoxicity Wh [20]	further results
CCCNC(=O)c1cc2c(nc1C(=O)Nc1c(CC)ccc(Cl)c1CC)[S+]([O-])CC2 (stereo not drawn) [Compound No. 1028]	5 (Weed-killing rate is 100%.)	5 (Weed-killing rate is 100%.)	5 (Weed-killing rate is 100%.)	4 (Crop-killing rate is 90-99%.)	5 (Crop-killing rate is 100%.)	4 (Weed-killing rate is 90-99%.)	5 (Weed-killing rate is 100%.)	5 (Weed-killing rate is 100%.)	5 (Weed-killing rate is 100%.)	5 (Weed-killing rate is 100%.)	5 (Weed-killing rate is 100%.)	5 (Weed-killing rate is 100%.)	5 (Weed-killing rate is 100%.)	5 (Weed-killing rate is 100%.)	5 (Weed-killing rate is 100%.)	5 (Weed-killing rate is 100%.)	5 (Weed-killing rate is 100%.)	5 (Weed-killing rate is 100%.)	5 (Weed-killing rate is 100%.)	5 (Crop-killing rate is 100%.)	Phytotoxicity So [21]: 4 (Crop-killing rate is 90-99%.)
CCCNC(=O)c1cc2c(nc1C(=O)Nc1c(CC)ccc(Cl)c1CC)S(=O)(=O)CC2 [Compound No. 1040, 6-(3-Chloro-2,6-diethylphenyl)-aminocarbonyl-2,3-dihydro-1,1-dioxo-thieno[2,3-b]pyridine-5-carboxylic Acid n-Propylamide]	5 (Weed-killing rate is 100%.)	5 (Weed-killing rate is 100%.)	5 (Weed-killing rate is 100%.)	4 (Crop-killing rate is 90-99%.)	5 (Crop-killing rate is 100%.)	5 (Weed-killing rate is 100%.)	5 (Weed-killing rate is 100%.)	5 (Weed-killing rate is 100%.)	5 (Weed-killing rate is 100%.)	5 (Weed-killing rate is 100%.)	5 (Weed-killing rate is 100%.)	5 (Weed-killing rate is 100%.)	5 (Weed-killing rate is 100%.)	5 (Weed-killing rate is 100%.)	5 (Weed-killing rate is 100%.)	5 (Weed-killing rate is 100%.)	5 (Weed-killing rate is 100%.)	5 (Weed-killing rate is 100%.)	5 (Weed-killing rate is 100%.)	5 (Crop-killing rate is 100%.)	Phytotoxicity So [21]: 4 (Crop-killing rate is 90-99%.)
CCNC(=O)c1nc2ccc(O)cc2cc1C(=O)Nc1c(CC)ccc(Cl)c1CC [compound 275]	5 (Weed-killing rate is 100%.)	5 (Weed-killing rate is 100%.)	4 (Weed-killing rate is 90-99%.)	0 (Crop-killing rate is 0-20% (No Phytotoxicity).)	1 (Crop-killing rate is 1-39%.)	3 (Weed-killing rate is 70-89%.)	4 (Weed-killing rate is 90-99%.)	3 (Weed-killing rate is 70-89%.)	3 (Weed-killing rate is 70-89%.)	4 (Weed-killing rate is 90-99%.)	4 (Weed-killing rate is 90-99%.)	3 (Weed-killing rate is 70-89%.)	4 (Weed-killing rate is 90-99%.)	3 (Weed-killing rate is 70-89%.)	3 (Weed-killing rate is 70-89%.)	4 (Weed-killing rate is 90-99%.)	4 (Weed-killing rate is 90-99%.)	5 (Weed-killing rate is 100%.)	5 (Weed-killing rate is 100%.)	2 (Crop-killing rate is 40-69%.)	Phytotoxicity So [21]: 1 (Crop-killing rate is 1-39%.)
CCCNC(=O)c1nc2ccc(O)cc2cc1C(=O)Nc1c(CC)ccc(Cl)c1CC [compound 276]	3 (Weed-killing rate is 70-89%.)	5 (Weed-killing rate is 100%.)	4 (Weed-killing rate is 90-99%.)	0 (Crop-killing rate is 0-20% (No Phytotoxicity).)	2 (Crop-killing rate is 40-69%.)	4 (Weed-killing rate is 90-99%.)	5 (Weed-killing rate is 100%.)	4 (Weed-killing rate is 90-99%.)	4 (Weed-killing rate is 90-99%.)	5 (Weed-killing rate is 100%.)	5 (Weed-killing rate is 100%.)	4 (Weed-killing rate is 90-99%.)	5 (Weed-killing rate is 100%.)	4 (Weed-killing rate is 90-99%.)	4 (Weed-killing rate is 90-99%.)	5 (Weed-killing rate is 100%.)	5 (Weed-killing rate is 100%.)	5 (Weed-killing rate is 100%.)	5 (Weed-killing rate is 100%.)	3 (Crop-killing rate is 70-89%.)	Phytotoxicity So [21]: 2 (Crop-killing rate is 40-69%.)
